Assay results: patent publication US20200023000A1, “SYNERGISM OF GOS AND POLYFRUCTOSE” (N.V. Nutricia, priority 2004, published 2020)

Columns and labels:
[1] = test system: distal and proximal part of the colon; test: Contraction of isolated colon segments in organ bath; design: species or system Male Wistar rats; details: for Tension of tonic contractions (FIG. 5): increasing concentrations up to 100 mM, effect higher in distal than proximal colon
Description: Male Wistar rats (CKP/Harlan, Wageningen/Horst, Netherlands) were housed under conditions of controlled temperature and light cycle and were provided free access to food pellets and water. Animals were anaesthetised by a mixture of N2O, O2 and isofluran, the abdomen was opened and the colon was removed immediately. The tissue was placed in Krebs-Henseleit buffer pH 7.4 (composition in mM: 118.0 NaCl, 4.75 KCl, 1.18 MgSO4, 2.5 CaCl2, 10 glucose, 1.17 KH2PO4 and 24.9 NaHCO3).
The colon was cut into a distal and a proximal portion and was rinsed with Krebs-Henseleit buffer while gently squeezing out faecal content. To approximate in vivo conditions as closely as possible, 1 cm fully intact segments were attached longitudinally to an isometric force transducer (F30 type 372, HSE, Germany) in 20 ml water-jacketed (37° C.) organ baths (Schuler, HSE, Germany) containing Krebs-Henseleit buffer gassed continuously with 95% O2-5% CO2. The segments were gradually stretched to a resting tension of 1 g and allowed to equilibrate for 45 minutes with intermittent washings. The tensions of the segments in rest and in response to different stimuli were amplified by a transducer amplifier module (HSE, Germany) and recorded on a multi-pen recorder (Rikadenki, HSE, Germany).
The segments were incubated with 40 mM KCl for 5 minutes and the contractile responses were measured. KCl was washed out by three consecutive washes at 5 minutes intervals. The segments were then incubated with increasing concentrations up to 100 mM of acetate or sodium-L-lactate. The acid solutions were prepared freshly in distilled water. NaOH was added to acetate to obtain a neutral pH. At the end of the incubation with a fatty acid, 40 mM KCl was added to determine whether the contractile response to KCl was influenced by the fatty acid. Before a new incubation the segments were allowed to equilibrate for 45 minutes in fresh Krebs-Henseleit buffer with intermittent washings.
The experimental protocol consisted of two proximal and two distal sections of the colon. For data analysis (n=3), the contraction level induced by the stimuli was defined as the tension in g after 5 minutes incubation. Data obtained from identical segments (proximal or distal) were used to calculate a mean value and each segment served as its own control sample.

[2] = test system: muc-2 expression in a CCD18/T84 co-culture; test: muc-2 expression in CCD18/T84 co-culture; assay type: cell-based
Experimental: (§1) The effect of lactate and a SCFA mixture was analysed as described in Willemsen, L E M, Koetsier M A, van Deventer S J H, van Tol E A F (2003), Gut 52:1442-1447, with the following modifications: Lactate and a mixture of acetate/propionate/butyrate 90/5/5 was tested. For the mucus production experiments a co-culture of CCD18 and T84 cells was used, whereas for the PGE1 and PGE2 production experiments a monoculture of CCD18 cells was used.

[3] = test system: PGE1 and PGE2 response in CCD18 cells; test: Spontaneous PGE1 and PGE2 response in CCD18 cells; assay type: cell-based; details: n=7
Experimental: as §1

[4] = proximal part of the colon, 25 mM
[5] = proximal part of the colon, concentrations higher than 25 mM

| Compound | Number of spontaneous (phasic) contractions ([1]; distal part of the colon) | Tension of tonic contractions (FIG. 5) [1] | Number of spontaneous (phasic) contractions ([1]; proximal part of the colon) | Tonic contractions as a response to KCl [1, 4] | Tonic contractions as a response to KCl [1, 5] | Increase of muc-2 expression (FIG. 4a) ([2]; at 0.5, 1 and 4 mM, n=6) | MUC-2 expression, dose dependence (FIG. 4A) ([2]; co-culture of CCD18 and T84 cells) | Increase of PGE1 (FIG. 4b) ([3]; at 100 μM) | Increase of PGE2 (FIG. 4b) ([3]; at 250 μM, P<0.05) |
| --- | --- | --- | --- | --- | --- | --- | --- | --- | --- |
| C[C@H](O)C(=O)[O-].[Na+] [sodium-L-lactate] | no effects are observed | decrease the tension of tonic contractions | decrease | comparable in the presence or absence | significant relaxation |  |  |  |  |
| CC(=O)[O-].[Na+] [sodium acetate, reference compound] | no effects are observed | decrease the tension of tonic contractions | decrease | comparable in the presence or absence | significant relaxation |  |  |  |  |
| C[C@H](O)C(=O)O [L-lactate] |  |  |  |  |  | statistically significant | dose dependently induces MUC-2 expression | statistically significant | statistically significant |
